Measurements as given in patent US20260232666A1, “COMPOSITIONS AND METHODS FOR INHIBITION OF RAS” (TheRas, Inc., priority 2023, published 2026).

Columns and labels:
[1] = biological target: T1, GDP-loaded KRAS4b (amino acids 1-169) G12C/C118S protein (Homo sapiens, UniProt P01116, C118S/G12C); assay: Covalent cysteine 12 modification by MALDI-TOF MS, GDP-loaded KRAS G12C; assay type: binding; settings: 15 minutes reaction time point
T1 construct: KRAS4b (amino acids 1-169) G12C/C118S protein; made in house
Outline: (§1)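 With several adducts, each species' height is expressed as a fraction of all observed protein peaks, scored on linear-mode spectra. Reactions run at pH 7.3 (HEPES, 150 mM NaCl, 1 mM MgCl2), using 1 μM protein and a 1:2.5 protein:compound ratio, and are sampled after 15 minutes in the dark.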

[2] = biological target: T2, Avi-KRAS G12C (1-169) GppNHp/RAF1 RBD-3×FLAG (52-151) (Homo sapiens, UniProt P01116, G12C); assay: Raf1 RBD-KRAS G12C-GppNHp disruption assay (protein:protein interaction HTRF); assay type: biochemical
T2 construct: Avi-KRAS G12C (1-169) GppNHp; Avi (N)
Outline: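 HTRF measuring RAF1 RBD binding to GppNHp-loaded KRAS G12C (50 nM) in Tris pH 7.5, 100 mM NaCl, 5 mM MgCl2, 10% DMSO. Compound, KRAS, RBD and detection reagents each added sequentially with 1 h room-temperature incubations; 10-point titration; excitation 320 nm, emission 615 nm; activity as % of DMSO; IC50 derived.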

[3] = biological target: T3, GTP-loaded KRAS4b (amino acids 1-169) G12C/C118S protein (Homo sapiens, UniProt P01116, C118S/G12C); assay: Covalent cysteine 12 modification by MALDI-TOF MS, GTP-loaded KRAS G12C; assay type: binding; settings: 15 minutes reaction time point
T3 construct: KRAS4b (amino acids 1-169) G12C/C118S protein; made in house
Outline: as §1

Structure (SMILES) | GDP-KRAS G12C percent of modification [1] | IC50 [2] | GTP-KRAS G12C percent of modification [3]
C=CC(=O)N1CC[C@@H](N(CC)c2nc(OC[C@]34CCCN3C[C@H](OC)C4)nc3c(F)c(-c4ccc(F)c5sc(N)c(C#N)c45)c(Cl)cc23)[C@H]1C [Compound 164] | A (percent of modification ≥70%) | < 500 nM | A (percent of modification ≥70%)
C=CC(=O)N1CC[C@@H](N(CC)c2nc(OC[C@]34CCCN3C[C@H](F)C4)nc3c(F)c(-c4ccc(F)c5sc(N)c(C#N)c45)c(C(F)(F)F)cc23)[C@H]1C [Compound 159] | A (percent of modification ≥70%) | < 500 nM | B (50≤percent of modification <70%)
C=CC(=O)N1CCC(N(C)c2nc(OC[C@@]34CCCN3C[C@H](F)C4)nc3c(F)c(-c4nc(N)cc(C)c4C(F)(F)F)c(Cl)cc23)[C@H]1C (stereo partly drawn) [Compound 10] | A (percent of modification ≥70%) | < 500 nM | B (50≤percent of modification <70%)
C=CC(=O)N1CC[C@@H](N(CC)c2nc(OC[C@@H]3C[C@@H](F)CN3C)nc3c(F)c(-c4ccc(F)c5sc(N)c(C#N)c45)ccc23)[C@H]1C [Compound 142] | A (percent of modification ≥70%) | < 500 nM | A (percent of modification ≥70%)
C=CC(=O)N1C2CC1CN(c1nc(OC[C@@]34CCCN3C[C@H](F)C4)nc3c(F)c(-c4ccc(F)c5sc(N)c(C#N)c45)c(C(F)(F)F)cc13)C2 [Compound 35] | A (percent of modification ≥70%) | < 500 nM | C (10%≤percent of modification <50%)
C=CC(=O)N1CC[C@@H](N(CC)c2nc(OC[C@@]34CCCN3C[C@H](F)C4)nc3c(F)c(-c4ccc(F)c5sc(N)c(C#N)c45)ccc23)[C@H]1C [Compound 17, 4-(4-(((2R,3R)-1-acryloyl-2-methylpyrrolidin-3-yl)(ethyl)amino)-8-fluoro-2-(((2R,7aS)-2-fluorotetrahydro-1H-pyrrolizin-7a(5H)-yl)methoxy)quinazolin-7-yl)-2-amino-7-fluorobenzo[b]thiophene-3-carbonitrile] | A (percent of modification ≥70%) | < 500 nM | A (percent of modification ≥70%)
C=CC(=O)N1CC[C@@H](N(C)c2nc(OC[C@@H]3CCCN3C)nc3c(F)c(-c4ccc(F)c5sc(N)c(C#N)c45)c(Cl)cc23)[C@H]1C (atropisomer, axis not shown) [Compound 118] | A (percent of modification ≥70%) | < 500 nM | A (percent of modification ≥70%)
C=CC(=O)N1CC[C@@H](N(CC)c2nc(OC[C@@H]3CCCN3C)nc3c(F)c(-c4ccc(F)c5sc(N)c(C#N)c45)ccc23)[C@H]1C [Compound 141] | A (percent of modification ≥70%) | < 500 nM | A (percent of modification ≥70%)
C=CC(=O)N1CC[C@@H](N(C)c2nc(OC[C@@H]3CCCN3C)nc3c(F)c(-c4ccc(F)c5sc(N)c(C#N)c45)c(C(F)(F)F)cc23)[C@H]1C (atropisomer, axis not shown) [Compound 132] | D (percent of modification <10%) | 5000 to 20000 nM | D (percent of modification <10%)
C=CC(=O)N1CCC(N(C)c2nc(OC[C@@H]3CCCN3C)nc3c(F)c(-c4nc(N)cc(C)c4C(F)(F)F)c(Cl)cc23)[C@H]1C (stereo partly drawn) [Compound 9] | B (50≤percent of modification <70%) | < 500 nM | C (10%≤percent of modification <50%)
C=CC(=O)N1C[C@H](C)N(c2nc(OC[C@@]34CCCN3C[C@H](F)C4)nc3c(F)c(-c4ccc(F)c5sc(N)c(C#N)c45)c(Cl)cc23)C[C@H]1C (atropisomer, axis not shown) [Compound 102] | A (percent of modification ≥70%) | < 500 nM | A (percent of modification ≥70%)
C=CC(=O)N1CC[C@@H](N(CC)c2nc(OC[C@@H]3C[C@@H](F)CN3C)nc3cc(-c4ccc(F)c5sc(N)c(C#N)c45)c(F)cc23)[C@H]1C [Compound 139] | A (percent of modification ≥70%) | < 500 nM | A (percent of modification ≥70%)

The remaining lines, values ahead:

GDP-KRAS G12C percent of modification [1] | IC50 [2] | GTP-KRAS G12C percent of modification [3] | Structure (SMILES)
D (percent of modification <10%) | 5000 to 20000 nM | D (percent of modification <10%) | C=CC(=O)N1CC[C@@H](N(C)c2nc(OC[C@H]3C[C@@H](OC)CN3C)nc3c(F)c(-c4ccc(F)c5sc(N)c(C#N)c45)c(C(F)(F)F)cc23)[C@H]1C (single isomer, unassigned) [Compound 175]
A (percent of modification ≥70%) | < 500 nM | A (percent of modification ≥70%) | C=CC(=O)N1CC[C@@H](N(CC)c2nc(OC[C@@H]3C[C@@H](OC)CN3C)nc3cc(-c4ccc(F)c5sc(N)c(C#N)c45)c(F)cc23)[C@H]1C [Compound 140]
A (percent of modification ≥70%) | < 500 nM | A (percent of modification ≥70%) | C=CC(=O)N1CC[C@@H](N(CC)c2nc(OC[C@]34CCCN3C[C@H](F)C4)nc3c(F)c(-c4ccc(F)c5sc(N)c(C#N)c45)c(Cl)cc23)[C@H]1C [Compound 165]
A (percent of modification ≥70%) | < 500 nM | A (percent of modification ≥70%) | C=CC(=O)N1CC[C@@H](N(C)c2nc(OC[C@H]3C[C@@H](OC)CN3C)nc3c(F)c(-c4ccc(F)c5sc(N)c(C#N)c45)c(C(F)(F)F)cc23)[C@H]1C (single isomer, unassigned) [Compound 173]
A (percent of modification ≥70%) | < 500 nM | A (percent of modification ≥70%) | C=CC(=O)N1C[C@H](N(C)c2nc(OC[C@@]34CCCN3C[C@H](F)C4)nc3cc(-c4ccc(F)c5sc(N)c(C#N)c45)c(F)cc23)C[C@H]1C [Compound 148]
A (percent of modification ≥70%) | < 500 nM | A (percent of modification ≥70%) | C=CC(=O)N1CC[C@@H](N(CC)c2nc(OC[C@@]34CCCN3C[C@H](F)C4)nc3cc(-c4ccc(F)c5sc(N)c(C#N)c45)c(C#N)cc23)[C@H]1C [Compound 25]
A (percent of modification ≥70%) | < 500 nM | A (percent of modification ≥70%) | C=CC(=O)N1CC[C@@H](N(C)c2nc(OC[C@]34CCCN3C[C@H](OC)C4)nc3c(F)c(-c4ccc(F)c5sc(N)c(C#N)c45)c(C(F)(F)F)cc23)[C@H]1C [Compound 156]
D (percent of modification <10%) | 5000 to 20000 nM | D (percent of modification <10%) | C=CC(=O)N1CC[C@@H](N(CC)c2nc(OC[C@@H]3C[C@@H](F)CN3C)nc3c(F)c(-c4ccc(F)c5sc(N)c(C#N)c45)c(C(F)(F)F)cc23)[C@H]1C (atropisomer, axis not shown) [Compound 114]
A (percent of modification ≥70%) | < 500 nM | B (50≤percent of modification <70%) | C=CC(=O)N1CC[C@@H](N(C)c2nc(OC[C@@]34CCCN3C[C@H](F)C4)nc3cc(-c4ccc(F)c5sc(N)c(C#N)c45)c(C#N)cc23)[C@@H]1C [Compound 27]
A (percent of modification ≥70%) | < 500 nM | A (percent of modification ≥70%) | C=CC(=O)N1CC[C@@H](N(CC)c2nc(OC[C@@H]3CCCN3C)nc3cc(-c4ccc(F)c5sc(N)c(C#N)c45)c(F)cc23)[C@H]1C [Compound 138]
D (percent of modification <10%) | 500 to 5000 nM | D (percent of modification <10%) | C=CC(=O)N1CC[C@@H](N(C)c2nc(OC[C@@H]3CC4(CC4)CN3C)nc3c(F)c(-c4ccc(F)c5sc(N)c(C#N)c45)c(C(F)(F)F)cc23)[C@@H]1C [Compound 112]
D (percent of modification <10%) | 5000 to 20000 nM | D (percent of modification <10%) | C=CC(=O)N1CC[C@@H](N(CC)c2nc(OC[C@@H]3C[C@@H](OC)CN3C)nc3c(F)c(-c4ccc(F)c5sc(N)c(C#N)c45)c(C(F)(F)F)cc23)[C@H]1C (single isomer, unassigned) [Compound 117]
A (percent of modification ≥70%) | < 500 nM | A (percent of modification ≥70%) | C=CC(=O)N1CC[C@@H](N(CC)c2nc(OC[C@]34CCCN3C[C@H](OC)C4)nc3c(F)c(-c4ccc(F)c5sc(N)c(C#N)c45)ccc23)[C@H]1C [Compound 169]
